Read-outs that look alike come from different tables or passages of the source.
Key:
[1] = test system: Alternaria alternata; assay: In vitro poisoned food technique against fungus (Ex. 20); assay type: cell-based; conditions: poisoned food technique, PDA medium, dose 1 ml/gm/lit., after seven days; for inhibition of growth at 1 mL or g/L: vs untreated control, read-out: % Inhibition of growth
[2] = test system: Alternaria alternata; assay: Alternaria leaf spot/blight on inoculated tomato plants (Ex. 28); assay type: in vivo; conditions: tomato plants, Alternaria alternata; after 7 days; dose 1 ml/gm/lit
[3] = test system: tomato seedlings; assay: Response of tomato plants, greenhouse growth (Ex. 30); assay type: in vivo; conditions: tomato seedlings, dose 1 ml/gm/lit; for Plant Height 5th Day / Stem Girth 5th Day / CCI 5th Day: 5th day after application; for Plant Height 10th Day / Stem Girth 10th Day / CCI 10th Day: 10th day after application; for Plant Height % Increase over pre on 10th Day / Stem Girth % Increase over pre on 10th Day / CCI % Increase over pre on 10th Day / Root Length (cm) 10th Day / Root Length % Increase over control: 10th day; for Root Length % Increase over control: vs water control
[4] = test system: chili seedlings; assay: Response of chili plants, greenhouse growth (Ex. 31); assay type: in vivo; conditions: chili seedlings, dose 1 ml/gm/lit; for CCI 5th Day / Plant Height (cm) 5th Day: 5th day after application; for CCI 10th Day / Plant Height (cm) 10th Day: 10th day after application; for CCI % Increase over pre on 10th Day / Plant Height % Increase over pre on 10th Day / Root Lenght (cm) 10th Day / Stem Girth % Increase over pre on 10th Day / Root Lenght % Increase over control: 10th day; for Root Lenght % Increase over control: vs water control
[5] = test system: Aphid; conditions: Dose 1 ml/gm/lit.; for Total No. of dead insect at 48 Hrs.: 10 insects/treatment, 4 replications, cotton leaves
[6] = test system: Mite; conditions: Dose 1 ml/gm/lit.; for Total No. of dead insect at 48 Hrs.: 10 insects/treatment, 4 replications, okra leaves
[7] = test system: Mealy Bug; conditions: Mealy Bug on cotton leaves, dose 1 ml/gm/lit., 48 Hrs.; for Total No. of dead insect at 48 Hrs.: 10 insects/treatment, 4 replications; for % Corrected Mortality at 48 Hrs.: corrected for water control
[8] = test system: Helicoverpa armigera; conditions: Helicoverpa armigera on okra fruits, dose 1 ml/gm/lit., 72 Hrs.; for Total No. of dead insect at 72 Hrs.: 10 insects/treatment, 4 replications; for % Corrected Mortality at 72 Hrs.: corrected for water control
[9] = test system: Spodoptera litura; conditions: Spodoptera litura on castor leaves; dose 1 ml/gm/lit.; 10 insects/treatment; 72 hrs after application
[10] = test system: Thrips; conditions: Thrips on cotton leaves; dose 1 ml/gm/lit.; 10 insects/treatment; 48 hrs after application
[11] = test system: Aphid; conditions: Aphids on cotton plants, green house; dose 1 ml/gm/lit.; 10 insects/plant, 10 plants/treatment; 48 hrs
[12] = test system: Mite; conditions: mite on okra plants, green house, dose 1 ml/gm/lit. spray; for % Mortality at 48 Hrs. / Total No. of dead insect at 48 Hrs.: 48 hrs after application; for % Corrected Mortality at 48 Hrs.: corrected for water control
[13] = test system: Mealy Bug; conditions: mealy bug on cotton plants, green house, dose 1 ml/gm/lit. spray; for % Mortality at 48 Hrs. / Total No. of dead insect at 48 Hrs.: 48 hrs after application; for % Corrected Mortality at 48 Hrs.: corrected for water control
[14] = test system: Helicoverpa armigera; conditions: Helicoverpa armigera 3rd instar on chickpea plants, dose 1 ml/gm/lit. spray; for % Mortality at 72 Hrs.: 72 hrs after application; for % Corrected Mortality at 72 Hrs.: corrected for water control
[15] = test system: Spodoptera litura; conditions: Spodoptera litura 3rd instar on cabbage plants, dose 1 ml/gm/lit. spray; for % Mortality at 72 Hrs.: 72 hrs after application; for % Corrected Mortality at 72 Hrs.: corrected for water control
[16] = test system: Thrips; conditions: thrips on cotton plants, greenhouse, dose 1 ml/gm/lit. spray; for % Mortality at 48 Hrs. / Total No. of dead insect at 48 Hrs.: 48 hrs after application; for % Corrected Mortality at 48 Hrs.: corrected for water control
[17] = cited from earlier work
[18] = test system: Spodoptera litura; assay: whole plant or invertebrate; conditions: 72 h
[19] = test system: Thrips; assay: whole plant or invertebrate; conditions: in Gossypium hirsutum, 48 h
[20] = test system: Aphid; assay: whole plant or invertebrate; conditions: 48 h
[21] = Table 13, descriptive, no test described
[22] = read-out: % Corrected Mortality at 72 Hrs.
[23] = read-out: % Mortality at 72 Hrs.
[24] = read-out: % Corrected Mortality at 48 Hrs.
[25] = read-out: % Mortality at 48 Hrs.

Structure (SMILES): CC12CCC(CC1=O)C2(C)C (stereo not shown) [Camphor]
- Mean colony Diameter (mm) [1]: 60.00 mm
- inhibition of growth at 1 mL or g/L [1]: 31.8%
- % Disease reduction over Control [2]: 46.28%
- Plant Height 5th Day [3]: 6.34 cm
- Stem Girth 5th Day [3]: 1.90 mm
- Plant Height 10th Day [3]: 6.96 cm
- Stem Girth 10th Day [3]: 2.06 mm
- Plant Height % Increase over pre on 10th Day [3]: 27.94%
- Stem Girth % Increase over pre on 10th Day [3]: 53.50%
- CCI 5th Day [3]: 13.64
- CCI % Increase over pre on 10th Day [3]: 26.67%
- Root Length (cm) 10th Day [3]: 3.58 cm
- CCI 10th Day [3]: 14.82
- Root Length % Increase over control [3]: 7.76%
- CCI 5th Day [4]: 11.80
- Plant Height (cm) 5th Day [4]: 5.70 cm
- CCI % Increase over pre on 10th Day [4]: 25.81%
- Plant Height % Increase over pre on 10th Day [4]: 56.20%
- Root Lenght (cm) 10th Day [4]: 3.47 cm
- Stem Girth % Increase over pre on 10th Day [4]: 44.32%
- CCI 10th Day [4]: 13.21
- Plant Height (cm) 10th Day [4]: 6.30 cm
- Root Lenght % Increase over control [4]: 26.68%
- Total No. of dead insect at 48 Hrs. [5]: 5.75
- % Corrected Mortality at 48 Hrs. [5]: 51.43%
- % Mortality at 48 Hrs. [5]: 57.50%
- Total No. of dead insect at 48 Hrs. [6]: 6.75
- % Corrected Mortality at 48 Hrs. ([6]; 48 hrs): 64.86%
- Total No. of dead insect at 48 Hrs. [7]: 5.25
- % Mortality at 48 Hrs. [7]: 52.50%
- % Corrected Mortality at 48 Hrs. [7]: 50.00%
- Total No. of dead insect at 72 Hrs. [8]: 6.00
- % Mortality at 72 Hrs. [8]: 60.00%
- % Corrected Mortality at 72 Hrs. [8]: 60.00%
- Total No. of dead insect at 72 Hrs. [9]: 4.25
- Total No. of dead insect at 48 Hrs. [10]: 4.50
- Total No. of dead insect at 48 Hrs. [11]: 60.00
- % Mortality at 48 Hrs. [12]: 65.00%
- Total No. of dead insect at 48 Hrs. [12]: 65.00
- % Corrected Mortality at 48 Hrs. [12]: 63.16%
- % Mortality at 48 Hrs. [13]: 67.50%
- Total No. of dead insect at 48 Hrs. [13]: 67.50
- % Corrected Mortality at 48 Hrs. [13]: 63.89%
- % Mortality at 72 Hrs. [14]: 55.00%
- % Corrected Mortality at 72 Hrs. [14]: 55.00%
- % Mortality at 72 Hrs. [15]: 45.00%
- % Corrected Mortality at 72 Hrs. [15]: 42.11%
- % Mortality at 48 Hrs. [16]: 42.50%
- Total No. of dead insect at 48 Hrs. [16]: 42.50
- % Corrected Mortality at 48 Hrs. [16]: 36.11%
- Acaricidal Activity - Mode of action [17, 21]: Deteriorating respiratory
- Antifungal Activity - Mode of action [17, 21]: Repel fungal infections
- Antioxidant Activity - Mode of action [17, 21]: Free radical scavenging
- Bactericidal Activity - Mode of action [17, 21]: Inhibit microbial growth,
- Insecticidal Activities - Mode of action [17, 21]: Strong contact toxicity
- Nematicidal Activity - Mode of action [17, 21]: Strong activity against
- Virucidal Activity - Mode of action [17, 21]: Control the spread of viral
- Phytotonic Effect ([17]; Table 13, effect on plants, descriptive): Strong
- mortality at 1 mL or g/L [18, 22]: 39.5%
- mortality at 1 mL or g/L [18, 23]: 42.5%
- mortality at 1 mL or g/L [19, 24]: 37.1%
- mortality at 1 mL or g/L [19, 25]: 45%
- mortality at 1 mL or g/L [20, 24]: 52.9%
- mortality at 1 mL or g/L [20, 25]: 60%

Structure (SMILES): Cc1ccc(C(C)C)cc1O [Carvacrol]
- Mean colony Diameter (mm) [1]: 52.50 mm
- inhibition of growth at 1 mL or g/L [1]: 40.3%
- % Disease reduction over Control [2]: 47.93%
- Plant Height 5th Day [3]: 6.38 cm
- Stem Girth 5th Day [3]: 2.05 mm
- Plant Height 10th Day [3]: 7.23 cm
- Stem Girth 10th Day [3]: 2.35 mm
- Plant Height % Increase over pre on 10th Day [3]: 32.66%
- Stem Girth % Increase over pre on 10th Day [3]: 63.42%
- CCI 5th Day [3]: 13.62
- CCI % Increase over pre on 10th Day [3]: 33.70%
- Root Length (cm) 10th Day [3]: 4.25 cm
- CCI 10th Day [3]: 15.87
- Root Length % Increase over control [3]: 27.69%
- CCI 5th Day [4]: 14.95
- Plant Height (cm) 5th Day [4]: 6.33 cm
- CCI % Increase over pre on 10th Day [4]: 64.84%
- Plant Height % Increase over pre on 10th Day [4]: 65.77%
- Root Lenght (cm) 10th Day [4]: 3.97 cm
- Stem Girth % Increase over pre on 10th Day [4]: 49.25%
- CCI 10th Day [4]: 15
- Plant Height (cm) 10th Day [4]: 7.57 cm
- Root Lenght % Increase over control [4]: 44.94%
- Total No. of dead insect at 48 Hrs. [5]: 7.00
- % Corrected Mortality at 48 Hrs. [5]: 65.71%
- % Mortality at 48 Hrs. [5]: 70.00%
- Total No. of dead insect at 48 Hrs. [6]: 4.25
- % Corrected Mortality at 48 Hrs. ([6]; 48 hrs): 37.84%
- % Mortality at 48 Hrs. ([6]; 48 hrs): 42.50%
- Total No. of dead insect at 48 Hrs. [7]: 6.75
- % Mortality at 48 Hrs. [7]: 67.50%
- % Corrected Mortality at 48 Hrs. [7]: 65.79%
- Total No. of dead insect at 72 Hrs. [8]: 5.50
- % Mortality at 72 Hrs. [8]: 55.00%
- % Corrected Mortality at 72 Hrs. [8]: 55.00%
- Total No. of dead insect at 72 Hrs. [9]: 4.50
- Total No. of dead insect at 48 Hrs. [10]: 3.50
- Total No. of dead insect at 48 Hrs. [11]: 72.50
- % Mortality at 48 Hrs. [12]: 47.50%
- Total No. of dead insect at 48 Hrs. [12]: 47.50
- % Corrected Mortality at 48 Hrs. [12]: 44.74%
- % Mortality at 48 Hrs. [13]: 65.00%
- Total No. of dead insect at 48 Hrs. [13]: 65.00
- % Corrected Mortality at 48 Hrs. [13]: 61.11%
- % Mortality at 72 Hrs. [14]: 52.50%
- % Corrected Mortality at 72 Hrs. [14]: 52.50%
- % Mortality at 72 Hrs. [15]: 47.50%
- % Corrected Mortality at 72 Hrs. [15]: 44.74%
- % Mortality at 48 Hrs. [16]: 32.50%
- Total No. of dead insect at 48 Hrs. [16]: 32.50
- % Corrected Mortality at 48 Hrs. [16]: 25.00%
- Acaricidal Activity - Mode of action [17, 21]: Has acaricidal activities
- Antifungal Activity - Mode of action [17, 21]: Antifungal activities
- Antioxidant Activity - Mode of action [17, 21]: Antioxidant activities
- Bactericidal Activity - Mode of action [17, 21]: Exhibits antibacterial
- Insecticidal Activities - Mode of action [17, 21]: Insecticidal toxicities
- Nematicidal Activity - Mode of action [17, 21]: Effective against plant
- mortality at 1 mL or g/L [18, 22]: 42.1%
- mortality at 1 mL or g/L [18, 23]: 45%
- mortality at 1 mL or g/L [19, 24]: 25.7%
- mortality at 1 mL or g/L [19, 25]: 35%
- mortality at 1 mL or g/L [20, 24]: 67.7%
- mortality at 1 mL or g/L [20, 25]: 72.5%
